Measurements as given in ChEMBL document CHEMBL4425196, “Synthesis of novel flavone derivatives possessing substituted benzamides and their biological evaluation against human cancer cells” (Bioorg Med Chem Lett, 2016).
Activity calls are given as the source filed them. No cut-off for these calls is given here.

Experiments:
HepG2 [1] = experiment: Growth inhibition of human HepG2 cells by MTT assay; format: functional
HepG2 [2] = experiment: Growth inhibition of human HepG2 cells at 10 uM by MTT assay relative to control; format: functional; conditions: for inhibition of growth at 10 µM: read-out: GI
MCF7 [3] = experiment: Growth inhibition of human MCF7 cells at 10 uM by MTT assay relative to control; format: functional; conditions: for inhibition of growth at 10 µM: read-out: GI
MCF7 [4] = experiment: Growth inhibition of human MCF7 cells by MTT assay; format: functional
[5] = Growth inhibition of human L-132 cells by MTT assay; format: cell-based, L132
[6] = Selectivity index, ratio of GI50 for human L-132 cells to GI50 for human MCF7 cells
[7] = Selectivity index, ratio of GI50 for human L-132 cells to GI50 for human HepG2 cells

GI50 (HepG2 [1])	GI50 (MCF7 [4])	SMILES	inhibition of growth at 10 µM (HepG2 [2])	inhibition of growth at 10 µM (MCF7 [3])	GI50 [5]	growth inhibition (GI) (HepG2 [2])	growth inhibition (GI) (MCF7 [3])	RatioGI50 [6]	RatioGI50 [7]
> 100 µM	30.3 µM	COC(=O)c1ccc(C(=O)Nc2cccc(-c3cc(=O)c4c(OC)c(OC)c(OC)cc4o3)c2)cc1	> 50%	> 50%	–	–	–	–	–
9.75 µM	8.32 µM	COc1cc2oc(-c3cccc(NC(=O)c4ccc(C)cc4)c3)cc(=O)c2c(OC)c1OC	> 50%	> 50%	–	–	–	–	–
10.9 µM	6.34 µM	COc1cc2oc(-c3cccc(NC(=O)c4cccc(Br)c4)c3)cc(=O)c2c(OC)c1OC	> 50%	> 50%	–	–	–	–	–
22.2 µM	6.87 µM	COc1ccc(C(=O)Nc2cccc(-c3cc(=O)c4c(OC)c(OC)c(OC)cc4o3)c2)cc1	> 50%	> 50%	–	–	–	–	–
47.2 µM	14.7 µM	COc1cc2oc(-c3cccc(NC(=O)c4ccc(F)cc4)c3)cc(=O)c2c(OC)c1OC	> 50%	> 50%	–	–	–	–	–
61.1 µM	10.6 µM	COc1cc2oc(-c3cccc(NC(=O)c4ccc(C(F)(F)F)cc4)c3)cc(=O)c2c(OC)c1OC	> 50%	> 50%	–	–	–	–	–
10.2 µM	12.7 µM	COc1cc2oc(-c3cccc(NC(=O)c4ccc(C#N)cc4)c3)cc(=O)c2c(OC)c1OC	> 50%	> 50%	–	–	–	–	–
21.3 µM	8.78 µM	COc1cc2oc(-c3cccc(NC(=O)c4ccc(Cl)cc4)c3)cc(=O)c2c(OC)c1OC	> 50%	> 50%	–	–	–	–	–
11.9 µM	41.7 µM	COc1cc2oc(-c3cccc(NC(=O)c4cccc(C#N)c4)c3)cc(=O)c2c(OC)c1OC	> 50%	> 50%	–	–	–	–	–
18.8 µM	20.1 µM	COc1cc2oc(-c3cccc(NC(=O)c4ccc([N+](=O)[O-])cc4)c3)cc(=O)c2c(OC)c1OC	> 50%	> 50%	–	–	–	–	–
8.85 µM	9.65 µM	COc1cc2oc(-c3cccc(NC(=O)c4ccc(Br)cc4)c3)cc(=O)c2c(OC)c1OC	> 50%	> 50%	–	–	–	–	–
7.06 µM	7.67 µM	COc1cccc(C(=O)Nc2cccc(-c3cc(=O)c4c(OC)c(OC)c(OC)cc4o3)c2)c1	> 50%	> 50%	20.9 µM	–	–	2 - 3	2 - 3
> 100 µM	2.05 µM	COc1ccc(C(=O)Nc2cccc(-c3cc(=O)c4c(O)c(OC)c(OC)cc4o3)c2)cc1	> 50%	> 50%	–	–	–	–	–
23.1 µM	55 µM	COc1cc2oc(-c3cccc(NC(=O)c4ccccc4Br)c3)cc(=O)c2c(OC)c1OC	> 50%	> 50%	–	–	–	–	–
11.7 µM	12.1 µM	COc1cc2oc(-c3cccc(NC(=O)c4ccccc4)c3)cc(=O)c2c(OC)c1OC	> 50%	> 50%	–	–	–	–	–

More lines, now with the values behind:

SMILES	GI50 (HepG2 [1])	GI50 (MCF7 [4])	inhibition of growth at 10 µM (HepG2 [2])	inhibition of growth at 10 µM (MCF7 [3])	GI50 [5]	growth inhibition (GI) (HepG2 [2])	growth inhibition (GI) (MCF7 [3])	RatioGI50 [6]	RatioGI50 [7]
COc1cccc(C(=O)Nc2cccc(-c3cc(=O)c4c(O)c(OC)c(OC)cc4o3)c2)c1	> 100 µM	35.6 µM	> 50%	> 50%	–	–	–	–	–
COc1ccccc1C(=O)Nc1ccc(-c2cc(=O)c3c(O)c(OC)c(OC)cc3o2)cc1	–	–	< 50%	< 50%	–	–	–	–	–
COc1cc2oc(-c3ccc(NC(=O)c4cccc(Br)c4)cc3)cc(=O)c2c(O)c1OC	–	–	40%	< 50%	–	–	–	–	–
COc1cc2oc(-c3ccc(NC(=O)c4ccc(C#N)cc4)cc3)cc(=O)c2c(O)c1OC	–	–	< 50%	< 50%	–	–	–	–	–
COc1cc([C@@H]2c3cc4c(cc3[C@@H](O[C@@H]3O[C@@H]5CO[C@@H](C)O[C@H]5[C@H](O)[C@H]3O)[C@H]3COC(=O)[C@H]23)OCO4)cc(OC)c1O [ETOPOSIDE]	–	–	–	–	10.4 µM	–	–	–	–
COc1cc2oc(-c3cccc(NC(=O)c4ccc5c(c4)OCO5)c3)cc(=O)c2c(O)c1OC	45.1 µM	8.47 µM	> 50%	> 50%	–	–	–	–	–
COc1cc2oc(-c3ccc(NC(=O)c4ccccc4Br)cc3)cc(=O)c2c(O)c1OC	–	–	< 50%	< 50%	–	–	–	–	–
COC(=O)c1ccc(C(=O)Nc2ccc(-c3cc(=O)c4c(O)c(OC)c(OC)cc4o3)cc2)cc1	–	–	< 50%	< 50%	–	–	–	–	–
COc1cc2oc(-c3ccc(NC(=O)c4ccc(Br)cc4)cc3)cc(=O)c2c(O)c1OC	–	–	< 50%	< 50%	–	–	–	–	–
O=c1cc(-c2ccccc2)oc2cc(O)c(O)c(O)c12	–	–	–	–	–	inactive	inactive	–	–
COc1ccccc1C(=O)Nc1cccc(-c2cc(=O)c3c(OC)c(OC)c(OC)cc3o2)c1	7.53 µM	15.3 µM	> 50%	> 50%	–	–	–	–	–
COc1ccccc1C(=O)Nc1cccc(-c2cc(=O)c3c(O)c(OC)c(OC)cc3o2)c1	> 100 µM	1.83 µM	> 50%	> 50%	–	–	–	–	–
COc1cc2oc(-c3ccccc3)cc(=O)c2c(OC)c1OC [BAICALEIN TRIMETHYL ETHER]	54 µM	91.4 µM	> 50%	> 50%	–	–	–	–	–
COc1cc2oc(-c3ccc(NC(=O)c4ccc(C)cc4)cc3)cc(=O)c2c(O)c1OC	–	–	< 50%	< 50%	–	–	–	–	–
COc1cc2oc(-c3ccc(NC(=O)c4ccc(C(F)(F)F)cc4)cc3)cc(=O)c2c(O)c1OC	–	–	< 50%	< 50%	–	–	–	–	–
COc1cc2oc(-c3ccc(NC(=O)c4ccc([N+](=O)[O-])cc4)cc3)cc(=O)c2c(O)c1OC	–	–	40%	< 50%	–	–	–	–	–
COc1ccc(C(=O)Nc2ccc(-c3cc(=O)c4c(O)c(OC)c(OC)cc4o3)cc2)cc1	–	–	< 50%	< 50%	–	–	–	–	–
COc1cc2oc(-c3ccc(NC(=O)c4ccccc4)cc3)cc(=O)c2c(O)c1OC	–	–	< 50%	< 50%	–	–	–	–	–
COc1cccc(C(=O)Nc2ccc(-c3cc(=O)c4c(O)c(OC)c(OC)cc4o3)cc2)c1	–	–	< 50%	< 50%	–	–	–	–	–
COc1cc2oc(-c3ccc(NC(=O)c4ccc(F)cc4)cc3)cc(=O)c2c(O)c1OC	–	–	< 50%	< 50%	–	–	–	–	–
COc1cc2oc(-c3cccc(NC(=O)c4cccc(Br)c4)c3)cc(=O)c2c(O)c1OC	44.8 µM	6.94 µM	> 50%	> 50%	–	–	–	–	–
COc1cc2oc(-c3ccc(NC(=O)c4ccc(Cl)cc4)cc3)cc(=O)c2c(O)c1OC	–	–	< 50%	< 50%	–	–	–	–	–
COc1cc2oc(-c3ccc(NC(=O)c4ccc5c(c4)OCO5)cc3)cc(=O)c2c(O)c1OC	–	–	40%	< 50%	–	–	–	–	–
COc1cc2oc(-c3ccc(NC(=O)c4cccc(C#N)c4)cc3)cc(=O)c2c(O)c1OC	–	–	< 50%	< 50%	–	–	–	–	–
COc1cc2oc(-c3cccc(NC(=O)c4ccc5c(c4)OCO5)c3)cc(=O)c2c(OC)c1OC	5.94 µM	9.12 µM	> 50%	> 50%	18 µM	–	–	2 - 3	2 - 3
